# Results from PubChem BioAssay AID2060905 (Molecular Pharmacology Branch, DTP, NCI, 2025).
# pIC50: −log10 of the molar value.
# Test system: 282377-053-R-J1-PDC complex spheroid viability
# Assay: Anticancer human tumor 282377-053-R-J1-PDC patient-derived colon adenocarcinoma cell line growth inhibition [RAS]
# Conditions: for pIC50: curve of first compound; for viability, T/C: stronger effect = lower value
# Procedure, shortened: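 Multi-cell-type spheroids: tumor cells plus HUVEC endothelial cells and mesenchymal stem cells. RAS-pathway inhibitors were combined with targeted agents, each dosed in half-log steps down from clinical Cmax, or from 10 microM when Cmax was unknown.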
# [1] = second compound 0.000949 µM, first compound 0.00316 µM
# [2] = second compound 0.000949 µM, first compound 0.01 µM
# [3] = second compound 0.000949 µM, first compound 0.0316 µM
# [4] = second compound 0.000949 µM, first compound 0.1 µM
# [5] = second compound 0.000949 µM, first compound 0.316 µM
# [6] = second compound 0.000949 µM, first compound 1 µM
# [7] = second compound 0.003 µM, first compound 0.00316 µM
# [8] = second compound 0.003 µM, first compound 0.01 µM
# [9] = second compound 0.003 µM, first compound 0.0316 µM
# [10] = second compound 0.003 µM, first compound 0.1 µM
# [11] = second compound 0.003 µM, first compound 0.316 µM
# [12] = second compound 0.003 µM, first compound 1 µM
# [13] = second compound 0.00949 µM, first compound 0.00316 µM
# [14] = second compound 0.00949 µM, first compound 0.01 µM
# [15] = second compound 0.00949 µM, first compound 0.0316 µM
# [16] = second compound 0.00949 µM, first compound 0.1 µM
# [17] = second compound 0.00949 µM, first compound 0.316 µM
# [18] = second compound 0.00949 µM, first compound 1 µM
# [19] = second compound 0.03 µM, first compound 0.00316 µM
# [20] = second compound 0.03 µM, first compound 0.01 µM
# [21] = second compound 0.03 µM, first compound 0.0316 µM
# [22] = second compound 0.03 µM, first compound 0.1 µM
# [23] = second compound 0.03 µM, first compound 0.316 µM
# [24] = second compound 0.03 µM, first compound 1 µM
# [25] = second compound 0.0949 µM, first compound 0.00316 µM
# [26] = second compound 0.0949 µM, first compound 0.01 µM
# [27] = second compound 0.0949 µM, first compound 0.0316 µM
# [28] = second compound 0.0949 µM, first compound 0.1 µM
# [29] = second compound 0.0949 µM, first compound 0.316 µM
# [30] = second compound 0.0949 µM, first compound 1 µM
# [31] = second compound 0.3 µM, first compound 0.00316 µM
# [32] = second compound 0.3 µM, first compound 0.01 µM
# [33] = second compound 0.3 µM, first compound 0.0316 µM
# [34] = second compound 0.3 µM, first compound 0.1 µM
# [35] = second compound 0.3 µM, first compound 0.316 µM
# [36] = second compound 0.3 µM, first compound 1 µM
# [37] = second compound 0.000949 µM, first compound 3.16 µM
# [38] = second compound 0.000949 µM, first compound 10 µM
# [39] = second compound 0.003 µM, first compound 3.16 µM
# [40] = second compound 0.003 µM, first compound 10 µM
# [41] = second compound 0.00949 µM, first compound 3.16 µM
# [42] = second compound 0.00949 µM, first compound 10 µM
# [43] = second compound 0.03 µM, first compound 3.16 µM
# [44] = second compound 0.03 µM, first compound 10 µM
# [45] = second compound 0.0949 µM, first compound 3.16 µM
# [46] = second compound 0.0949 µM, first compound 10 µM
# [47] = second compound 0.3 µM, first compound 3.16 µM
# [48] = second compound 0.3 µM, first compound 10 µM
# 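Further: spheroids exposed to agents for seven days before readout.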
# 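Wherever viability, T/C is given: luminescence viability as percent of DMSO vehicle control wells.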
compound,measurement,setting,value
C=CC(=O)Nc1cc(Nc2nccc(-c3cn(C)c4ccccc34)n2)c(OC)cc1N(C)CCN(C)C + CCn1c(-c2cc(N3CCN(C)CC3)cnc2C(C)OC)c2c3cc(ccc31)-c1csc(n1)CC(NC(=O)C1CC1C)C(=O)N1CCCC(N1)C(=O)OCC(C)(C)C2,pIC50,second compound 0.000949 µM,< 6.00
same,pIC50,second compound 0.003 µM,< 6.00
same,pIC50,second compound 0.00949 µM,< 6.00
same,pIC50,second compound 0.03 µM,< 6.00
same,pIC50,second compound 0.0949 µM,< 6.00
same,pIC50,second compound 0.3 µM,< 6.00
same,"viability, T/C",[1],96.5%
same,"viability, T/C",[2],109%
same,"viability, T/C",[3],78%
same,"viability, T/C",[4],86.9%
same,"viability, T/C",[5],83.4%
same,"viability, T/C",[6],91.6%
same,"viability, T/C",[7],87.3%
same,"viability, T/C",[8],106%
same,"viability, T/C",[9],89.9%
same,"viability, T/C",[10],80.8%
same,"viability, T/C",[11],83.6%
same,"viability, T/C",[12],75.8%
same,"viability, T/C",[13],102%
same,"viability, T/C",[14],90.8%
same,"viability, T/C",[15],97.5%
same,"viability, T/C",[16],84.8%
same,"viability, T/C",[17],73.8%
same,"viability, T/C",[18],80.3%
same,"viability, T/C",[19],83%
same,"viability, T/C",[20],97.4%
same,"viability, T/C",[21],116%
same,"viability, T/C",[22],89.9%
same,"viability, T/C",[23],85.6%
same,"viability, T/C",[24],94.4%
same,"viability, T/C",[25],95%
same,"viability, T/C",[26],92.5%
same,"viability, T/C",[27],97.8%
same,"viability, T/C",[28],78.6%
same,"viability, T/C",[29],112%
same,"viability, T/C",[30],91.7%
same,"viability, T/C",[31],84.9%
same,"viability, T/C",[32],97.2%
same,"viability, T/C",[33],92%
same,"viability, T/C",[34],97.5%
same,"viability, T/C",[35],98.6%
same,"viability, T/C",[36],138%
CC(C)NCC(C(=O)N1CCN(c2ncnc3c2C(C)CC3O)CC1)c1ccc(Cl)cc1 (stereo not drawn) + CCn1c(-c2cc(N3CCN(C)CC3)cnc2C(C)OC)c2c3cc(ccc31)-c1csc(n1)CC(NC(=O)C1CC1C)C(=O)N1CCCC(N1)C(=O)OCC(C)(C)C2,pIC50,second compound 0.000949 µM,< 5.00
same,pIC50,second compound 0.003 µM,< 5.00
same,pIC50,second compound 0.00949 µM,< 5.00
same,pIC50,second compound 0.03 µM,< 5.00
same,pIC50,second compound 0.0949 µM,< 5.00
same,pIC50,second compound 0.3 µM,< 5.00
same,"viability, T/C",[3],96.1%
same,"viability, T/C",[4],93.7%
same,"viability, T/C",[5],80.8%
same,"viability, T/C",[6],79.4%
same,"viability, T/C",[37],78%
same,"viability, T/C",[38],76.5%
same,"viability, T/C",[9],90.7%
same,"viability, T/C",[10],106%
same,"viability, T/C",[11],88.2%
same,"viability, T/C",[12],71.8%
same,"viability, T/C",[39],76.2%
same,"viability, T/C",[40],68.3%
same,"viability, T/C",[15],93%
same,"viability, T/C",[16],119%
same,"viability, T/C",[17],79.4%
same,"viability, T/C",[18],68%
same,"viability, T/C",[41],70.7%
same,"viability, T/C",[42],69.1%
same,"viability, T/C",[21],111%
same,"viability, T/C",[22],83.1%
same,"viability, T/C",[23],82.5%
same,"viability, T/C",[24],70%
same,"viability, T/C",[43],65.3%
same,"viability, T/C",[44],64.4%
same,"viability, T/C",[27],95.3%
same,"viability, T/C",[28],87.6%
same,"viability, T/C",[29],93.8%
same,"viability, T/C",[30],62.8%
same,"viability, T/C",[45],63.8%
same,"viability, T/C",[46],65.4%
same,"viability, T/C",[33],100%
same,"viability, T/C",[34],86.6%
same,"viability, T/C",[35],109%
same,"viability, T/C",[36],69.1%
same,"viability, T/C",[47],64.6%
same,"viability, T/C",[48],69.9%
CC(Nc1ccc2c(c1)OCCn1cc(N3C(=O)OCC3C(F)F)nc1-2)C(N)=O (stereo not drawn) + CCn1c(-c2cc(N3CCN(C)CC3)cnc2C(C)OC)c2c3cc(ccc31)-c1csc(n1)CC(NC(=O)C1CC1C)C(=O)N1CCCC(N1)C(=O)OCC(C)(C)C2,pIC50,second compound 0.000949 µM,< 5.00
same,pIC50,second compound 0.003 µM,< 5.00
same,pIC50,second compound 0.00949 µM,< 5.00
same,pIC50,second compound 0.03 µM,< 5.00
same,pIC50,second compound 0.0949 µM,< 5.00
same,pIC50,second compound 0.3 µM,< 5.00
same,"viability, T/C",[3],95.5%
same,"viability, T/C",[4],104%
same,"viability, T/C",[5],81.1%
same,"viability, T/C",[6],80%
same,"viability, T/C",[37],74.3%
same,"viability, T/C",[38],77.4%
same,"viability, T/C",[9],96.5%
same,"viability, T/C",[10],104%
same,"viability, T/C",[11],95.2%
same,"viability, T/C",[12],81.8%
same,"viability, T/C",[39],75.3%
same,"viability, T/C",[40],70.6%
same,"viability, T/C",[15],103%
same,"viability, T/C",[16],83.4%
same,"viability, T/C",[17],109%
same,"viability, T/C",[18],96.5%
same,"viability, T/C",[41],84.5%
same,"viability, T/C",[42],68.3%
same,"viability, T/C",[21],86.6%
same,"viability, T/C",[22],83.2%
same,"viability, T/C",[23],84.1%
same,"viability, T/C",[24],80.3%
same,"viability, T/C",[43],82.2%
same,"viability, T/C",[44],70.7%
same,"viability, T/C",[27],90.6%
same,"viability, T/C",[28],82.9%
same,"viability, T/C",[29],93.7%
same,"viability, T/C",[30],95.3%
same,"viability, T/C",[45],82.9%
same,"viability, T/C",[46],98.7%
same,"viability, T/C",[33],106%
same,"viability, T/C",[34],78.9%
same,"viability, T/C",[35],94.3%
same,"viability, T/C",[36],104%
same,"viability, T/C",[47],84.3%
same,"viability, T/C",[48],87.9%
O=C(c1ccc(F)c(F)c1Nc1ccc(I)cc1F)N1CC(O)([C@@H]2CCCCN2)C1 + CCn1c(-c2cc(N3CCN(C)CC3)cnc2C(C)OC)c2c3cc(ccc31)-c1csc(n1)CC(NC(=O)C1CC1C)C(=O)N1CCCC(N1)C(=O)OCC(C)(C)C2,pIC50,second compound 0.000949 µM,7.42
same,pIC50,second compound 0.003 µM,7.25
same,pIC50,second compound 0.00949 µM,7.42
same,pIC50,second compound 0.03 µM,7.92
same,pIC50,second compound 0.0949 µM,7.75
same,pIC50,second compound 0.3 µM,7.84
same,"viability, T/C",[1],68.3%
same,"viability, T/C",[2],65.3%
same,"viability, T/C",[3],49.6%
same,"viability, T/C",[4],39.9%
same,"viability, T/C",[5],27.2%
same,"viability, T/C",[6],16.9%
same,"viability, T/C",[7],70.3%
same,"viability, T/C",[8],61.9%
same,"viability, T/C",[9],69.6%
same,"viability, T/C",[10],33.2%
same,"viability, T/C",[11],26.1%
same,"viability, T/C",[12],14.6%
same,"viability, T/C",[13],68%
same,"viability, T/C",[14],67.4%
same,"viability, T/C",[15],51.7%
same,"viability, T/C",[16],34%
same,"viability, T/C",[17],22.1%
same,"viability, T/C",[18],16%
same,"viability, T/C",[19],77.4%
same,"viability, T/C",[20],43%
same,"viability, T/C",[21],45.9%
same,"viability, T/C",[22],26.7%
same,"viability, T/C",[23],20.6%
same,"viability, T/C",[24],15.4%
same,"viability, T/C",[25],75.9%
same,"viability, T/C",[26],68%
same,"viability, T/C",[27],32%
same,"viability, T/C",[28],23.8%
same,"viability, T/C",[29],18.1%
same,"viability, T/C",[30],13.8%
same,"viability, T/C",[31],67.8%
same,"viability, T/C",[32],58.6%
same,"viability, T/C",[33],31.1%
same,"viability, T/C",[34],21.5%
same,"viability, T/C",[35],18.8%
same,"viability, T/C",[36],15.8%
